Source: patent US11234982B2, “Methods for treating ocular surface pain” (NOVARTIS AG, priority 2019, dated 2022)

Columns and labels:
[1] = system: healthy volunteers; assay: First in human study Part 2: MAD, incidence of adverse events and MTD; assay type: in vivo; conditions: for AEs leading to discontinuation of: nE / AEs leading to discontinuation of: nS (%) / AEs of Mild severity: nE / AEs of Mild severity: nS (%) / AEs of Moderate: nE / AEs of Moderate: nS (%) / AEs, Subjects with AEs: nE (AE events) / AEs, Subjects with AEs: nS (%) (subjects with at least one AE) / Serious AEs: nE / Serious AEs: nS (%) / Study drug-related AEs: nE / Study drug-related AEs: nS (%) / Study-drug related AEs (last line of Table 2): nE / Study-drug related AEs (last line of Table 2): nS (%): MAD, N = 6
Protocol: Part 2 tested multiple ascending doses (MAD) of compound I, administering (i) 1 drop of 0.15%, 1.5%, 2.5%, 4 times daily (every 6 hours) for 7 days or (ii) 1 drop of 2.5%, 8 times daily (every 3 hours) for 7 days (supra-therapeutic dose) as eye drops.
Safety assessments: Safety assessments consisted of collecting all adverse events (AEs), serious adverse events (SAEs), including systemic and ocular adverse events, along with their severity and relationship to study drug. Systemic safety assessments included regular monitoring of hematology, blood chemistry and urinalysis performed at study center and regular assessments of physical examination, vital signs (systolic and diastolic blood pressure, pulse rate, and body temperature), ECG, pregnancy and assessments of fertility and hand immersion test at 49° C. during MAD part. Ocular safety assessments included early treatment diabetic retinopathy study (ETDRS) visual acuity, intraocular pressure, slit-lamp biomicroscopy, corneal staining and dilated fundus exam.
Inclusion Criteria: • Written informed consent was obtained before any assessment was performed. • Healthy male and female subjects aged 18 to 50 years (inclusive), and in good health as determined by past medical history, physical examination, vital signs, ECG, and laboratory tests at Screening. • At Screening, and Baseline, vital signs (systolic and diastolic blood pressure (BP) and pulse rate) were assessed in the sitting position after the subject had rested for at least 3 minutes and again after 3 minutes in the standing position. […] BMI=Body weight (kg)/[Height (m)]^2 • Subjects who were able to communicate well with the Investigator, to understand and comply with the requirements of the study. • For Part 3, subjects Baseline levels of eye sensitivity were to be in the range of 50 to 60 mm (inclusive) as measured by the Cochet-Bonnet esthesiometer.
History of any chronic eye disease other than refractive error, incipient cataract, strabismic amblyopia, or anisometropic amblyopia. Subjects with a history of acute eye disease (such as infection, corneal abrasion or allergy) within the past 6 months from Screening were eligible if the disease was not active. • Any currently active ocular condition that required use of topical eye drops. • Subjects using continuous positive airway pressure or other sleep apnea devices.

[2] = system: patients undergoing photorefractive keratectomy (PRK) surgery; assay: PRK study: Ocular Pain Assessment Survey (OPAS); assay type: in vivo, human
Protocol: The study was a proof of concept, double-masked, randomized, vehicle-controlled study of compound I administered as eye drops in addition to standard of care treatment in patients after PRK surgery. PRK surgery was performed as an outpatient procedure under topical anesthesia with removal of the corneal epithelium to expose the stroma for the laser ablation. Compound I dosing was as single eye drop of 2.5% (25 mg/ml, 0.925 mg/drop), administered four times daily (every six hours) in one eye from immediate post-op (time 0) to last dose at 72 hours.
The OPAS is a validated instrument for quantifying and monitoring corneal and ocular surface pain and quality of life, developed in response to an identified need from a National Eye Institute Workshop in 2010. See Qazi et al., Ophthalmology July 123(7):1458-1468 (2016). The rating scale of the overall pain severity in the OPAS from Qazi et al. rated from 0 (no pain) to 10 (severe pain) or for frequency of symptoms from 0% (never) to 100% (all the time), as per the survey. The patients were asked to fill out the OPAS survey/questionnaire at Day 2, Day 4 (at the end of treatment period with study drug) and Day 8. Statistical analysis of OPAS results was not performed.

CC(C)c1nc2cc(O)ccc2c(=O)n1-c1ccc(C#N)cc1 [Compound I, 4-(7-hydroxy-2-isopropyl-4-oxo-4H-quinazolin-3-yl)-benzonitrile]
Dose limiting adverse events ([1]; 2.5%, 8 times daily for 7 days): No dose limiting adverse events were identified
AEs leading to discontinuation of: nE ([1]; 0.15% 4 times daily for 7 days): 0
AEs leading to discontinuation of: nS (%) ([1]; 0.15% 4 times daily for 7 days): 0 (0.0) nS (%)
AEs of Mild severity: nE ([1]; 0.15% 4 times daily for 7 days): 6
AEs of Mild severity: nS (%) ([1]; 0.15% 4 times daily for 7 days): 3 (50.0) nS (%)
AEs of Moderate: nE ([1]; 0.15% 4 times daily for 7 days): 0
AEs of Moderate: nS (%) ([1]; 0.15% 4 times daily for 7 days): 0 (0.0) nS (%)
AEs, Subjects with AEs: nE (AE events) ([1]; 0.15% 4 times daily for 7 days): 6
AEs, Subjects with AEs: nS (%) (subjects with at least one AE) ([1]; 0.15% 4 times daily for 7 days): 3 (50.0) nS (%)
Serious AEs: nE ([1]; 0.15% 4 times daily for 7 days): 0, 0
Serious AEs: nS (%) ([1]; 0.15% 4 times daily for 7 days): 0, 0 nS (%)
Study drug-related AEs: nE ([1]; 0.15% 4 times daily for 7 days): 5
Study drug-related AEs: nS (%) ([1]; 0.15% 4 times daily for 7 days): 2 (33.3) nS (%)
Study-drug related AEs (last line of Table 2): nE ([1]; 0.15% 4 times daily for 7 days): 0
Study-drug related AEs (last line of Table 2): nS (%) ([1]; 0.15% 4 times daily for 7 days): 0 (0.0) nS (%)
AEs leading to discontinuation of: nE ([1]; 1.5% 4 times daily for 7 days): 0
AEs leading to discontinuation of: nS (%) ([1]; 1.5% 4 times daily for 7 days): 0 (0.0) nS (%)
AEs of Mild severity: nE ([1]; 1.5% 4 times daily for 7 days): 11
AEs of Mild severity: nS (%) ([1]; 1.5% 4 times daily for 7 days): 5 (83.3) nS (%)
AEs of Moderate: nE ([1]; 1.5% 4 times daily for 7 days): 1
AEs of Moderate: nS (%) ([1]; 1.5% 4 times daily for 7 days): 1 (16.7) nS (%)
AEs, Subjects with AEs: nE (AE events) ([1]; 1.5% 4 times daily for 7 days): 12
AEs, Subjects with AEs: nS (%) (subjects with at least one AE) ([1]; 1.5% 4 times daily for 7 days): 5 (83.3) nS (%)
Serious AEs: nE ([1]; 1.5% 4 times daily for 7 days): 0
Serious AEs: nS (%) ([1]; 1.5% 4 times daily for 7 days): 0 (0.0) nS (%)
Study drug-related AEs: nE ([1]; 1.5% 4 times daily for 7 days): 9
Study drug-related AEs: nS (%) ([1]; 1.5% 4 times daily for 7 days): 3 (50.0) nS (%)
Study-drug related AEs (last line of Table 2): nE ([1]; 1.5% 4 times daily for 7 days): 0
Study-drug related AEs (last line of Table 2): nS (%) ([1]; 1.5% 4 times daily for 7 days): 0 (0.0) nS (%)
AEs leading to discontinuation of: nE ([1]; 2.5% 4 times daily for 7 days): 1, 1
AEs leading to discontinuation of: nS (%) ([1]; 2.5% 4 times daily for 7 days): 1, 1 nS (%)
AEs of Mild severity: nE ([1]; 2.5% 4 times daily for 7 days): 3
AEs of Mild severity: nS (%) ([1]; 2.5% 4 times daily for 7 days): 2 (33.3) nS (%)
AEs of Moderate: nE ([1]; 2.5% 4 times daily for 7 days): 1
AEs of Moderate: nS (%) ([1]; 2.5% 4 times daily for 7 days): 1 (16.7) nS (%)
AEs, Subjects with AEs: nE (AE events) ([1]; 2.5% 4 times daily for 7 days): 4
AEs, Subjects with AEs: nS (%) (subjects with at least one AE) ([1]; 2.5% 4 times daily for 7 days): 2 (33.3) nS (%)
Serious AEs: nE ([1]; 2.5% 4 times daily for 7 days): 0
Serious AEs: nS (%) ([1]; 2.5% 4 times daily for 7 days): 0 (0.0) nS (%)
Study drug-related AEs: nE ([1]; 2.5% 4 times daily for 7 days): 4
Study drug-related AEs: nS (%) ([1]; 2.5% 4 times daily for 7 days): 2 (33.3) nS (%)
Study-drug related AEs (last line of Table 2): nE ([1]; 2.5% 4 times daily for 7 days): 1
Study-drug related AEs (last line of Table 2): nS (%) ([1]; 2.5% 4 times daily for 7 days): 1 (16.7) nS (%)
AEs leading to discontinuation of: nE ([1]; 2.5% 8 times daily for 7 days): 0
AEs leading to discontinuation of: nS (%) ([1]; 2.5% 8 times daily for 7 days): 0 (0.0) nS (%)
AEs of Mild severity: nE ([1]; 2.5% 8 times daily for 7 days): 3
AEs of Mild severity: nS (%) ([1]; 2.5% 8 times daily for 7 days): 2 (33.3) nS (%)
AEs of Moderate: nE ([1]; 2.5% 8 times daily for 7 days): 0
AEs of Moderate: nS (%) ([1]; 2.5% 8 times daily for 7 days): 0 (0.0) nS (%)
AEs, Subjects with AEs: nE (AE events) ([1]; 2.5% 8 times daily for 7 days): 3
AEs, Subjects with AEs: nS (%) (subjects with at least one AE) ([1]; 2.5% 8 times daily for 7 days): 2 (33.3) nS (%)
Serious AEs: nE ([1]; 2.5% 8 times daily for 7 days): 0
Serious AEs: nS (%) ([1]; 2.5% 8 times daily for 7 days): 0 (0.0) nS (%)
Study drug-related AEs: nE ([1]; 2.5% 8 times daily for 7 days): 2
Study drug-related AEs: nS (%) ([1]; 2.5% 8 times daily for 7 days): 1 (16.7) nS (%)
Study-drug related AEs (last line of Table 2): nE ([1]; 2.5% 8 times daily for 7 days): 0
Study-drug related AEs (last line of Table 2): nS (%) ([1]; 2.5% 8 times daily for 7 days): 0 (0.0) nS (%)
Severity of adverse events of suspected causality to compound I ([1]; Parts 1, 2 and 3, exception in the 2.5% 4 times daily cohort): mild severity, except for moderate severity eye irritation
Most frequent ocular adverse events ([1]; compound I treated, compared with placebo): corneal staining, hyperemia and mild anterior chamber inflammation, in levels similar to placebo
Maximum Tolerated Dose (MTD) ([1]; maximum feasible concentration, 8 times daily for 7 days, eye drops): 2.5%
OPAS questions 4, 5, 6: eye pain intensity during the previous 24 hours (most painful, least painful, average) ([2]; Day 2, compared to Vehicle, no statistical analysis): all 3 answers numerically favored compound I
OPAS questions 22-25: how often eye pain associated with redness, burning, sensitivity to light, tearing ([2]; compared to Vehicle, no statistical analysis): all answers favored compound I
OPAS: pain control and quality of life, compound I vs. Vehicle treatment period ([2]; in vivo): better pain control and quality of life
